From patent publication US8759295B2, “Peptide-peptidase inhibitor conjugates and methods of using same” (Amylin Pharmaceuticals, LLC, priority 2006, dated 2014) come the findings set out here.

Starred links: 1 amine or outer side, 2 acyl side, 3 side chain; linkers in the order of their positions; H or OH if unused. Non-standard residues stand in square brackets, D forms with d. Residues, ends and D or L forms follow the SMILES beside them. *: point of attachment. Pyrrolidine(2S-CN) = N#C[C@@H]1CCCN1*; εLys = N[C@@H](CCCCN[*:1])C(=O)[*:2]; AEEA = NCCOCCOCC(=O)O

In assay [1] the test system is plasma carboxypeptidase. The assay is described as follows: Carboxypeptidase activity assay in human plasma, PYY(3-35) formation. Type of assay: biochemical. The note with it: for inhibition of formation of PYY(3-35): 0.5 mM, human plasma. The protocol:
Carboxypeptidase activity assays were performed in the presence of various agents to test for carboxypeptidase inhibitor activity of the agents.
The remainder of the sample was placed in an incubator at 37° C., mixing at 600 RPM for sixty minutes. At 10 minute intervals, a 100 μL sample of the mixture was removed and transferred to a separate microcentrifuge tubes. Following the transfer of the 100 μL sample at the zero time point and each 10 minute interval, each collected sample was extracted by slow addition of 100 μl cold 0.2% formic acid:acetonitrile, while mixing. After addition of the acetonitrile solution, the sample was vortex mixed at high speed for 15 seconds. The extracted samples were stored at −20° C. for at least 20 minutes and then centrifuged at 11,000×g for 10 minutes at 5° C. The supernatant of each sample was transferred to a new microcentrifuge tube, centrifuged again, and finally transferred for LC/MS analysis. The MS analysis was a Q1 single ion monitoring method that detects the most intense ion of the parent molecule and the peptide fragment of interest.

In assay [2] the test system is Dahl salt-sensitive (DSS) male rats. The assay is described as follows: Congestive heart failure (CHF) in vivo assay. The note with it: week 5, high-salt diet, 10 μg/kg/day sc infusion.
Method: In this assay, Dahl salt-sensitive (DSS) male rats were weaned at 21 days of age, maintained on a low-salt (LS) diet (0.2% NaCl) for 2 weeks. Rats were anesthetized with ketamine/xylazine (50 mg/kg/10 mg/kg, IP) and telemetry transmitters (Data Sciences, Inc.) were inserted to the aortic artery when rats were at 5 weeks of age. After surgery, the rats were allowed 10 days to recuperate before their BP (systolic and diastolic pressures) was recorded.
HS control animals (n=10 rats) were administered vehicle (50% DMSO) and fed HS in the same manner. LS control animals (n=5 rats) were maintained on the LS diet.
The target in assay [3] is T1, human GIP receptor (HEK-GIPR membranes) (Homo sapiens, UniProt P48546).
T1 construct: expressed in transfected cells
T1 sequence (P48546 22-466): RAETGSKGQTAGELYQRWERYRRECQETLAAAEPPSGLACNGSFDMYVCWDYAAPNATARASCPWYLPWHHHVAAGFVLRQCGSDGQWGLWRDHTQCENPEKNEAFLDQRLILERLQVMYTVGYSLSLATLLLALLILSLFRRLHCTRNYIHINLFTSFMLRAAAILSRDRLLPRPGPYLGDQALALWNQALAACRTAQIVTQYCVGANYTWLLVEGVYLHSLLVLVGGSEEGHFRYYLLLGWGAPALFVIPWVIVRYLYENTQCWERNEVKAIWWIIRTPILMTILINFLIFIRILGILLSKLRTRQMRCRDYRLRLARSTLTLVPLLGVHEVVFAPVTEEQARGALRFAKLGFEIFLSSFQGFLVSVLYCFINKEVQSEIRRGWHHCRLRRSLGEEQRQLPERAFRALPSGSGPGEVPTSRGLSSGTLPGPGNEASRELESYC
Nature of the assay: GIP receptor binding displacement assay (RBA). Particulars: read-out: GIP RBA % inhibition at 10 nM; 10 nM conjugate, 30 pM 125I-GIP. The protocol: Membrane fractions were prepared from confluent cell cultures of HEK-GIPR, snap frozen, and stored at −80° C. until use. […] Reactions were allowed to proceed to equilibrium for 90 minutes at room temperature with constant shaking. The reaction mixtures were then filtered through 96-well glass fiber filter plates separating bound and unbound fractions of radioligand.

In assay [4] the target is Recombinant DPP-IV (Homo sapiens, UniProt P27487). The assay is described as follows: DPP-IV inhibition assay with chromogenic substrate. Also noted: purchased Chemicon International, Inc., Temecula, Calif. Particulars: mean SEM of at least three determinations. It counts as biochemical. As to the method:
The reactions were initiated by adding 1 μl DPP-IV enzyme (0.05 mU) into each well and the absorbance at 410 nm was measured with 20-sec intervals over a 30-min period using a SpectraMax plate reader (Molecular Devices, Corp., Sunnyvale, Calif.). The velocities of each reaction at different inhibitor concentrations were calculated and the reciprocal velocities were plotted against inhibitor concentrations in Dixon graphs. The IC50 values of reaction velocities were calculated through fitting the plots with linear equation.
The IC50 (nM) values in Table 5 are expressed as the mean SEM of at least three independent determinations.

Recombinant DPP-IV, sequence (P27487 whole entry, species assumed): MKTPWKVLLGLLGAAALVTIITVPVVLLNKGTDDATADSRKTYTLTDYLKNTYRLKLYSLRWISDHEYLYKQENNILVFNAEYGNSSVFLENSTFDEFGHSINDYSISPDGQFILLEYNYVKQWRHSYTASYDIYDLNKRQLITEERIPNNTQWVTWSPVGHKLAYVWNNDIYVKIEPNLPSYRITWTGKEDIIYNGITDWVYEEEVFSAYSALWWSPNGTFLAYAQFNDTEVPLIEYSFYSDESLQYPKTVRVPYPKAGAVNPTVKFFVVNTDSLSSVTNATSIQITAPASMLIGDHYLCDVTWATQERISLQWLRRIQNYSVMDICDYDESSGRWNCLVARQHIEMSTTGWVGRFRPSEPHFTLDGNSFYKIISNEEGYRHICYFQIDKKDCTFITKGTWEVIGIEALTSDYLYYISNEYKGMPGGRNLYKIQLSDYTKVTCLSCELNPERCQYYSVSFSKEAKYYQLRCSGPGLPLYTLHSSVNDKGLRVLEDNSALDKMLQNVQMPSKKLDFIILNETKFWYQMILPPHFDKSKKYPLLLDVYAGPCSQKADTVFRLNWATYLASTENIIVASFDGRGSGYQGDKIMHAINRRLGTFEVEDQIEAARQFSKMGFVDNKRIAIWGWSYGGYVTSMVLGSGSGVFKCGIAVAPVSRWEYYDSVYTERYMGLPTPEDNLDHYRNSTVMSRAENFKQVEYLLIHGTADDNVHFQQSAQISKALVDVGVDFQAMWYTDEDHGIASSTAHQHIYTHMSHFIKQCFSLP

With `NCCc1ccc(S(=O)(=O)F)cc1` [AEBSF, 4-(2-aminoethyl)-benzenesulfonylfluoride, reference compound], the “inhibition of plasma carboxypeptidase activity” value in assay [1] (protease inhibitor at 1 mM) was “inhibited”. Consider `CC[C@H](C)[C@H](NC(=O)[C@H](Cc1ccccc1)NC(=O)[C@H](CC(C)C)NC(=O)[C@H](CCCNC(=N)N)NC(=O)[C@@H](NC(=O)[C@H](C)NC(=O)[C@H](CCC(=O)O)NC(=O)[C@H](CCC(=O)O)NC(=O)[C@H](CCC(=O)O)NC(=O)[C@H](CC(C)C)NC(=O)[C@H](CCC(N)=O)NC(=O)[C@H](CCCCN)NC(=O)[C@H](CO)NC(=O)[C@H](CC(C)C)NC(=O)[C@H](CC(=O)O)NC(=O)[C@H](CO)NC(=O)[C@@H](NC(=O)[C@H](Cc1ccccc1)NC(=O)[C@@H](NC(=O)CNC(=O)[C@H](CCC(=O)O)NC(=O)CNC(=O)[C@@H](N)Cc1c[nH]cn1)[C@@H](C)O)[C@@H](C)O)C(C)C)C(=O)N[C@@H](CCC(=O)O)C(=O)N[C@@H](Cc1c[nH]c2ccccc12)C(=O)N[C@@H](CC(C)C)C(=O)N[C@@H](CCCCN)C(=O)N[C@@H](CCC(N)=O)C(=O)NCC(=O)NCC(=O)N1CCC[C@H]1C(=O)N[C@@H](CO)C(=O)N[C@@H](CCCCN)C(=O)N[C@@H](CCC(=O)O)C(=O)N[C@H](C(=O)N[C@H](C(=O)N[C@@H](CO)C(=O)NCCOCCOCCOCC(=O)NCCOCCOCC(=O)NCCCC[C@H](NC(CCc1ccccc1)C(=O)O)C(=O)N1CCC[C@H]1C(=O)O)[C@@H](C)CC)[C@@H](C)CC` (stereo partly shown) [Compound 5715], for which, in assay [2], the “mean diastolic blood pressure” value is 112 mmHg, the mean heart rate worked out at 381 and the “mean systolic blood pressure” value is recorded as 161 mmHg. A word on the inhibition: it is how much of the control response was suppressed. For orientation: IC50 means the point on the concentration scale where inhibition reaches its midpoint. Turning to `CC[C@H](C)[C@H](NC(=O)[C@H](CO)NC(=O)[C@H](Cc1ccc(O)cc1)NC(=O)[C@H](CC(=O)O)NC(=O)[C@H](CO)NC(=O)[C@@H](NC(=O)[C@H](Cc1ccccc1)NC(=O)[C@@H](NC(=O)CNC(=O)[C@H](CCC(=O)O)NC(=O)[C@H](C)NC(=O)[C@@H](N)Cc1ccc(O)cc1)[C@@H](C)O)[C@@H](C)CC)C(=O)N[C@@H](C)C(=O)N[C@@H](CCSC)C(=O)N[C@@H](CC(=O)O)C(=O)N[C@@H](CCCCN)C(=O)N[C@H](C(=O)N[C@@H](Cc1c[nH]cn1)C(=O)N[C@@H](CCC(N)=O)C(=O)N[C@@H](CCC(N)=O)C(=O)N[C@@H](CC(=O)O)C(=O)N[C@@H](Cc1ccccc1)C(=O)N[C@H](C(=O)N[C@@H](CC(N)=O)C(=O)N[C@@H](Cc1c[nH]c2ccccc12)C(=O)N[C@@H](CC(C)C)C(=O)N[C@@H](CC(C)C)C(=O)N[C@@H](C)C(=O)N[C@@H](CCC(N)=O)C(=O)N[C@@H](CCCCNC(=O)COCCOCCNC(=O)CC[C@H](N)C(=O)N1CCC[C@H]1C#N)C(N)=O)C(C)C)[C@@H](C)CC` [Lys^30N-ε-(Ado-(γ-L-Glu-2-(S)-cyanopyrrolidyl)) GIP(1-30)], in assay [3], the inhibition at 0.01 µM stood at 33%. Also, the 50% inhibitory concentration (IC50) in assay [4] stood at 49 ± 6 nM. On to `CC[C@H](C)[C@H](NC(=O)[C@H](CO)NC(=O)[C@H](Cc1ccc(O)cc1)NC(=O)[C@H](CC(=O)O)NC(=O)[C@H](CO)NC(=O)[C@@H](NC(=O)[C@H](Cc1ccccc1)NC(=O)[C@@H](NC(=O)CNC(=O)[C@H](CCC(=O)O)NC(=O)[C@H](C)NC(=O)[C@H](Cc1ccc(O)cc1)NC(=O)COCCOCCNC(=O)COCCOCCNC(=O)CC[C@H](N)C(=O)N1CCC[C@H]1C#N)[C@@H](C)O)[C@@H](C)CC)C(=O)N[C@@H](C)C(=O)N[C@@H](CCSC)C(=O)N[C@@H](CC(=O)O)C(=O)N[C@@H](CCCCN)C(=O)N[C@H](C(=O)N[C@@H](Cc1c[nH]cn1)C(=O)N[C@@H](CCC(N)=O)C(=O)N[C@@H](CCC(N)=O)C(=O)N[C@@H](CC(=O)O)C(=O)N[C@@H](Cc1ccccc1)C(=O)N[C@H](C(=O)N[C@@H](CC(N)=O)C(=O)N[C@@H](Cc1c[nH]c2ccccc12)C(=O)N[C@@H](CC(C)C)C(=O)N[C@@H](CC(C)C)C(=O)N[C@@H](C)C(=O)N[C@@H](CCC(N)=O)C(=O)N[C@@H](CCCCN)C(=O)O)C(C)C)[C@@H](C)CC` [N-(γ-L-Glu-2-(S)-cyanopyrrolidyl)-Ado-Ado) GIP(1-30)], for which, in assay [3], the inhibition at 0.01 µM is 32%. Further, the IC50 in assay [4] was 64 ± 8 nM. In the case of `CNC(Cc1ccc(O)cc1)C(N)=O` (stereo not shown) [N-methyl-Tyr-NH2], the “inhibition of formation of PYY(3-35)” value in assay [1] is “did not inhibit”. Take `CC[C@H](C)[C@H](NC(=O)[C@H](CO)NC(=O)[C@H](Cc1ccc(O)cc1)NC(=O)[C@H](CC(=O)O)NC(=O)[C@H](CO)NC(=O)[C@@H](NC(=O)[C@H](Cc1ccccc1)NC(=O)[C@@H](NC(=O)CNC(=O)[C@H](CCC(=O)O)NC(=O)[C@H](C)NC(=O)[C@@H](N)Cc1ccc(O)cc1)[C@@H](C)O)[C@@H](C)CC)C(=O)N[C@@H](C)C(=O)N[C@@H](CC(C)C)C(=O)N[C@@H](CC(=O)O)C(=O)N[C@@H](CCCCN)C(=O)N[C@H](C(=O)N[C@@H](Cc1c[nH]cn1)C(=O)N[C@@H](CCC(N)=O)C(=O)N[C@@H](CCC(N)=O)C(=O)N[C@@H](CC(=O)O)C(=O)N[C@@H](Cc1ccccc1)C(=O)N[C@H](C(=O)N[C@@H](CC(N)=O)C(=O)N[C@@H](Cc1c[nH]c2ccccc12)C(=O)N[C@@H](CC(C)C)C(=O)N[C@@H](CC(C)C)C(=O)N[C@@H](C)C(=O)N[C@@H](CCC(N)=O)C(=O)N[C@@H](CCCCN)C(=O)NCCOCCOCC(=O)NCCCC[C@H](N)C(=O)N1CCC[C@H]1C#N)C(C)C)[C@@H](C)CC` [[Leu^14]GIP(1-30)-Ado-Lys-N-ε-(2-(S)-cyano pyrrolidyl)] (H-YAEGTFISDYSIALDKIHQQDFVNWLLAQK[AEEA][εLys]-{Pyrrolidine(2S-CN)}): the inhibition at 0.01 µM in assay [3] turned out to be 100%. Further, in assay [4], the IC50 is 109 ± 1 nM. On to “^36N-methyl-Tyr-amide-PYY(22-36) (ASLRHYLNLVTRQRY; HELM PEPTIDE1{A.S.L.R.H.Y.L.N.L.V.T.R.Q.R.[meY].[am]}$$$$V2.0; N-terminus assumed; SMILES CC(C)C[C@H](NC(=O)[C@H](CO)NC(=O)[C@H](C)N)C(=O)N[C@@H](CCCNC(=N)N)C(=O)N[C@@H](Cc1c[nH]cn1)C(=O)N[C@@H](Cc1ccc(O)cc1)C(=O)N[C@@H](CC(C)C)C(=O)N[C@@H](CC(N)=O)C(=O)N[C@@H](CC(C)C)C(=O)N[C@H](C(=O)N[C@H](C(=O)N[C@@H](CCCNC(=N)N)C(=O)N[C@@H](CCC(N)=O)C(=O)N[C@@H](CCCNC(=N)N)C(=O)N(C)[C@@H](Cc1ccc(O)cc1)C(N)=O)[C@@H](C)O)C(C)C) [N-terminal truncation of ^36N-methyl-Tyr-amide-PYY(3-36)]”, for which the “inhibition of formation of PYY(3-35)” value in assay [1] was “measurable but lower activity”.

Turning to “^36N-methyl-Tyr-amide-PYY(34-36) (QRY; HELM PEPTIDE1{Q.R.[meY].[am]}$$$$V2.0; N-terminus assumed; SMILES CN(C(=O)[C@H](CCCNC(=N)N)NC(=O)[C@@H](N)CCC(N)=O)[C@@H](Cc1ccc(O)cc1)C(N)=O) [N-terminal truncation of ^36N-methyl-Tyr-amide-PYY(3-36)]”, in assay [1], the “inhibition of formation of PYY(3-35)” value was “did not inhibit”.
